Assay [1] relates to HCV replicon genotype 1b. Put plainly: HCV replicon assay, genotype 1b (cell ELISA for NS3/4A). To be noted: Hepatitis C virus, 96 h, read-out: 1b IC50 (nM), HCV genotype 1b replicon cells, 96 hours incubation, NS3/4A ELISA readout, % of DMSO control. It is filed as cell-based, hepatitis C virus. The procedure, abridged:
(§1)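 Stable neomycin-resistant replicon cell lines (genotype 1a or 1b) incubated 96 h with compound dilution series without G418. After washing and lysis, replication measured by cell ELISA for replicon-encoded NS3/4A protein; IC50 as % of DMSO control via four-parameter fit.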
For orientation: In antiviral work, replicon cells carry a viral genome segment that copies itself.

Assay [2] has as its system HCV replicon genotype 1a. Put plainly: HCV replicon assay, genotype 1a (cell ELISA for NS3/4A). It is filed as cell-based, hepatitis C virus. The note with it: Hepatitis C virus, 96 h, read-out: 1a IC50 (nM), HCV genotype 1a replicon cells, 96 hours incubation, NS3/4A ELISA readout, % of DMSO control. Summed up: as §1

As for `CNC(=O)c1c(-c2ccc(F)cc2)oc2cc(N(C)S(C)(=O)=O)c([C@H]3CCCN(C(=O)c4ccn5nncc5c4)C3)cc12` [Example 105, 2-(4-fluorophenyl)-N-methyl-6-[methyl(methylsulfonyl)amino]-5-[(3R)-1-([1,2,3]triazolo[1,5-a]pyridin-5-ylcarbonyl)piperidin-3-yl]-1-benzofuran-3-carboxamide], the IC50 in assay [1] is 219 nM; in assay [2], 347 nM.

For the molecule `CNC(=O)c1c(-c2ccc(F)cc2)oc2cc(N(C)S(C)(=O)=O)c([C@H]3CCCN(C(=O)c4cc5ccccn5c4)C3)cc12` [Example 106, 2-(4-fluorophenyl)-5-[(3R)-1-(indolizin-2-ylcarbonyl)piperidin-3-yl]-N-methyl-6-[methyl(methylsulfonyl)amino]-1-benzofuran-3-carboxamide], the figures for the IC50 in assay [1] and in assay [2] were 51.5 nM and 123 nM, respectively.

Turning to `CNC(=O)c1c(-c2ccc(F)cc2)oc2cc(N(C)S(C)(=O)=O)c([C@H]3CCCN(C(=O)c4cn5c(Cl)cccc5n4)C3)cc12` [Example 107, 5-{(3R)-1-[(5-chloroimidazo[1,2-a]pyridin-2-yl)carbonyl]piperidin-3-yl}-2-(4-fluorophenyl)-N-methyl-6-[methyl(methylsulfonyl)amino]-1-benzofuran-3-carboxamide], the IC50 in assay [1] was 116 nM; in assay [2] it was 389 nM.

`CNC(=O)c1c(-c2ccc(F)cc2)oc2cc(N(C)S(C)(=O)=O)c([C@H]3CCCN(C(=O)C(c4ccccc4)c4ccccc4)C3)cc12` [Example 108, 5-[(3R)-1-(diphenylacetyl)piperidin-3-yl]-2-(4-fluorophenyl)-N-methyl-6-[methyl(methylsulfonyl)amino]-1-benzofuran-3-carboxamide]: the IC50 in assay [1] came out at 53 nM; in assay [2] it was 266 nM.

Regarding `CNC(=O)c1c(-c2ccc(F)cc2)oc2cc(N(C)S(C)(=O)=O)c([C@@H]3CCCN(S(=O)(=O)Cc4ccncc4)C3)cc12` [Example 109, 2-(4-fluorophenyl)-N-methyl-6-[methyl(methylsulfonyl)amino]-5-{(3S)-1-[(pyridin-4-ylmethyl)sulfonyl]piperidin-3-yl}-1-benzofuran-3-carboxamide], the results for the IC50 in assay [1] and in assay [2] were 26.2 nM and 104 nM, respectively.

With `CNC(=O)c1c(-c2ccc(F)cc2)oc2cc(N(C)S(C)(=O)=O)c([C@@H]3CCCN(S(=O)(=O)Cc4cccnc4)C3)cc12` [Example 110, 2-(4-fluorophenyl)-N-methyl-6-[methyl(methylsulfonyl)amino]-5-{(3S)-1-[(pyridin-3-ylmethyl)sulfonyl]piperidin-3-yl}-1-benzofuran-3-carboxamide], the figures for the IC50 in assay [1] and in assay [2] were 38.4 nM and 164 nM, respectively.

Turning to `CNC(=O)c1c(-c2ccc(F)cc2)oc2cc(N(C)S(C)(=O)=O)c([C@@H]3CCCN(S(=O)(=O)c4ccccc4C)C3)cc12` [Example 111, 2-(4-fluorophenyl)-N-methyl-6-[methyl(methylsulfonyl)amino]-5-{(3S)-1-[(2-methylphenyl)sulfonyl]piperidin-3-yl}-1-benzofuran-3-carboxamide], the IC50 in assay [1] was 17.2 nM; in assay [2], 68.1 nM.

In the case of `CNC(=O)c1c(-c2ccc(F)cc2)oc2cc(N(C)S(C)(=O)=O)c([C@@H]3CCCN(S(=O)(=O)c4ccc5ncsc5c4)C3)cc12` [Example 112, 5-[(3S)-1-(1,3-benzothiazol-6-ylsulfonyl)piperidin-3-yl]-2-(4-fluorophenyl)-N-methyl-6-[methyl(methylsulfonyl)amino]-1-benzofuran-3-carboxamide], the values for the IC50 in assay [1] and in assay [2] were 6.79 nM and 25 nM, respectively.

Regarding `CNC(=O)c1c(-c2ccc(F)cc2)oc2cc(N(C)S(C)(=O)=O)c([C@@H]3CCCN(S(=O)(=O)c4ccc(C)cc4)C3)cc12` [Example 113, 2-(4-fluorophenyl)-N-methyl-6-[methyl(methylsulfonyl)amino]-5-{(3S)-1-[(4-methylphenyl)sulfonyl]piperidin-3-yl}-1-benzofuran-3-carboxamide], the IC50 was 21.9 nM in assay [1] and 64.6 nM in assay [2].

Turning to `CNC(=O)c1c(-c2ccc(F)cc2)oc2cc(N(C)S(C)(=O)=O)c([C@@H]3CCCN(S(=O)(=O)c4cccc(F)c4)C3)cc12` [Example 114, 2-(4-fluorophenyl)-5-{(3S)-1-[(3-fluorophenyl)sulfonyl]piperidin-3-yl}-N-methyl-6-[methyl(methylsulfonyl)amino]-1-benzofuran-3-carboxamide], the values for the IC50 in assay [1] and in assay [2] were 8.2 nM and 34.2 nM, respectively.

Take `CNC(=O)c1c(-c2ccc(F)cc2)oc2cc(N(C)S(C)(=O)=O)c([C@@H]3CCCN(S(=O)(=O)c4ccc(F)cc4)C3)cc12` [Example 115]: the IC50 in assay [1] worked out at 8 nM; in assay [2], 36.6 nM.

For the molecule `CNC(=O)c1c(-c2ccc(F)cc2)oc2cc(N(C)S(C)(=O)=O)c([C@@H]3CCCN(S(=O)(=O)C4CCCCC4)C3)cc12` [Example 116, 5-[(3S)-1-(cyclohexylsulfonyl)piperidin-3-yl]-2-(4-fluorophenyl)-N-methyl-6-[methyl(methylsulfonyl)amino]-1-benzofuran-3-carboxamide], the IC50 in assay [1] is 31.7 nM; in assay [2], 194 nM.

For the molecule `CNC(=O)c1c(-c2ccc(F)cc2)oc2cc(N(C)S(C)(=O)=O)c([C@@H]3CCCN(S(=O)(=O)c4ccccc4)C3)cc12` [Example 117, 2-(4-fluorophenyl)-N-methyl-6-[methyl(methylsulfonyl)amino]-5-[(3S)-1-(phenylsulfonyl)piperidin-3-yl]-1-benzofuran-3-carboxamide], the IC50 was 9.37 nM in assay [1] and 32.3 nM in assay [2].

In the case of `CNC(=O)c1c(-c2ccc(F)cc2)oc2cc(N(C)S(C)(=O)=O)c([C@@H]3CCCN(S(=O)(=O)c4c(Cl)nc5sccn45)C3)cc12` [Example 118, 5-{(3S)-1-[(6-chloroimidazo[2,1-b][1,3]thiazol-5-yl)sulfonyl]piperidin-3-yl}-2-(4-fluorophenyl)-N-methyl-6-[methyl(methylsulfonyl)amino]-1-benzofuran-3-carboxamide], the results for the IC50 in assay [1] and in assay [2] were 8.36 nM and 41 nM, respectively.

On to `CNC(=O)c1c(-c2ccc(F)cc2)oc2cc(N(C)S(C)(=O)=O)c([C@@H]3CCCN(S(=O)(=O)c4ccccc4F)C3)cc12` [Example 119, 2-(4-fluorophenyl)-5-{(3S)-1-[(2-fluorophenyl)sulfonyl]piperidin-3-yl}-N-methyl-6-[methyl(methylsulfonyl)amino]-1-benzofuran-3-carboxamide], for which the results for the IC50 in assay [1] and in assay [2] were 10.9 nM and 24.5 nM, respectively.

As for `CNC(=O)c1c(-c2ccc(F)cc2)oc2cc(N(C)S(C)(=O)=O)c([C@@H]3CCCN(S(=O)(=O)c4cccc5nonc45)C3)cc12` [Example 120, 5-[(3S)-1-(2,1,3-benzoxadiazol-4-ylsulfonyl)piperidin-3-yl]-2-(4-fluorophenyl)-N-methyl-6-[methyl(methylsulfonyl)amino]-1-benzofuran-3-carboxamide], the IC50 in assay [1] amounted to 8.37 nM; in assay [2], 22.4 nM.

For `CNC(=O)c1c(-c2ccc(F)cc2)oc2cc(N(C)S(C)(=O)=O)c([C@@H]3CCCN(S(=O)(=O)Cc4ccccc4)C3)cc12` [Example 121, 5-[(3S)-1-(benzylsulfonyl)piperidin-3-yl]-2-(4-fluorophenyl)-N-methyl-6-[methyl(methylsulfonyl)amino]-1-benzofuran-3-carboxamide], the results for the IC50 in assay [1] and in assay [2] were 23.8 nM and 47.5 nM, respectively.

As for `CNC(=O)c1c(-c2ccc(F)cc2)oc2cc(N(C)S(C)(=O)=O)c([C@@H]3CCCN(S(=O)(=O)c4ccc5c(c4)CC(=O)N5)C3)cc12` [Example 122, 2-(4-fluorophenyl)-N-methyl-6-[methyl(methylsulfonyl)amino]-5-{(3S)-1-[(2-oxo-2,3-dihydro-1H-indol-5-yl)sulfonyl]piperidin-3-yl}-1-benzofuran-3-carboxamide], the IC50 was found to be 22.1 nM in assay [1] and 78.8 nM in assay [2].

With `CNC(=O)c1c(-c2ccc(F)cc2)oc2cc(N(C)S(C)(=O)=O)c([C@@H]3CCCN(S(=O)(=O)Cc4ccccn4)C3)cc12` [Example 123, 2-(4-fluorophenyl)-N-methyl-6-[methyl(methylsulfonyl)amino]-5-{(3S)-1-[(pyridin-2-ylmethyl)sulfonyl]piperidin-3-yl}-1-benzofuran-3-carboxamide], the IC50 in assay [1] turned out to be 29.8 nM; in assay [2], 106 nM.

Turning to `CNC(=O)c1c(-c2ccc(F)cc2)oc2cc(N(C)S(C)(=O)=O)c([C@@H]3CCCN(S(=O)(=O)CCc4ccccc4)C3)cc12` [Example 124, 2-(4-fluorophenyl)-N-methyl-6-[methyl(methylsulfonyl)amino]-5-{(3S)-1-[(2-phenylethyl)sulfonyl]piperidin-3-yl}-1-benzofuran-3-carboxamide], the IC50 in assay [1] was 72.9 nM; in assay [2], 182 nM.

In the case of `CNC(=O)c1c(-c2ccc(F)cc2)oc2cc(N(C)S(C)(=O)=O)c([C@@H]3CCCN(S(=O)(=O)c4cnc5n4CCCCC5)C3)cc12` [Example 125, 2-(4-fluorophenyl)-N-methyl-6-[methyl(methylsulfonyl)amino]-5-[(3S)-1-(6,7,8,9-tetrahydro-5H-imidazo[1,2-a]azepin-3-ylsulfonyl)piperidin-3-yl]-1-benzofuran-3-carboxamide], the IC50 in assay [1] is 67.6 nM; in assay [2], 172 nM.

With `CNC(=O)c1c(-c2ccc(F)cc2)oc2cc(N(C)S(C)(=O)=O)c([C@@H]3CCCN(S(=O)(=O)c4cccc(C)c4)C3)cc12` [Example 126, 2-(4-fluorophenyl)-N-methyl-6-[methyl(methylsulfonyl)amino]-5-{(3S)-1-[(3-methylphenyl)sulfonyl]piperidin-3-yl}-1-benzofuran-3-carboxamide], the IC50 in assay [1] came to 13.2 nM; in assay [2], 46.9 nM.
